Usually inhibition stands for the drop in the measured response relative to a control, in per cent. A lower inhibition goes with a response near the control.

Several values for one entry are separate records, joined by “and”; a condition that tells them apart may be missing. Equal entries are not always repeated. Structures can show the parent of a compound that is named as a salt.

The values that follow come from US10156566B2, “Detoxification of microbial virulence factors in oral cavity” (priority 2015, dated 2018).

The subject of the test is Lipopolysaccharide.
Compound `CCCCCCCCCC(=O)OC[C@H](COP(=O)([O-])OCC[N+](C)(C)C)OC(=O)CCCCCCCCC` [1,2-Didecanoyl PC] had an inhibition of 67.9%. In the case of `CCCCCCCCCC(=O)OC[C@H](CO)OC(=O)CCCCCCCCC` [1,2-Didecanoyl-sn-glycerol] it was 47.4%. In the case of `CCCCCCCC(=O)OC[C@H](CO)OC(=O)CCCCCCC` [1,2-Dioctanoyl-sn-glycerol] it was 51.2%. `CCCCC/C=C\C/C=C\C/C=C\C/C=C\CCCC(=O)OCC(O)CO` (stereo not drawn) [1-Arachidonoyl Glycerol] displayed an inhibition of 41.8%.

`CCCCCCCC/C=C\CCCCCCCC(=O)OC[C@H](CO)OC(C)=O` [1-Oleoyl-2-acetyl-sn-glycerol] gave an inhibition of 36.2%. Compound `CCCCC/C=C\C/C=C\C/C=C\C/C=C\CCCC(=O)O[C@H](COC(=O)CCCCCCCCCCCCCCCCC)COP(=O)([O-])OCC[N+](C)(C)C` [1-Stearoyl-2-Arachidonoyl PC] had an inhibition of 55%.

For `CCCCC/C=C\C/C=C\C/C=C\C/C=C\CCCCOC(CO)CO` [2-Arachidonyl Glycerol ether], the inhibition amounted to 35%. As for `CC(C)CCC[C@@H](C)[C@H]1CC[C@H]2[C@@H]3CC(=O)[C@@]4(O)C[C@@H](O)CC[C@]4(C)[C@H]3CC[C@]12C` [5α-hydroxy-6-keto Cholesterol], the inhibition is 81.7%.

`CCCCCCCC/C=C\CCCCCCCC(=O)OCCO` [9-octadecenoic acid (z)-,2-hydroxyethyl ester] registered an inhibition of 46%. Then `CCCCCCCCCCCC(=O)NCCCN(C)C` [(Laurylamidopropyl)dimethyl amine], with 99.1%; and `O=C1O/C(=C/Br)CC[C@@H]1c1cccc2ccccc12` [(R)-Bromoenol lactone], with 97.3%; and `O=C1O/C(=C/Br)CC[C@H]1c1cccc2ccccc12` [(S)-Bromoenol lactone], with 95.2%. Then `CC/C=C\C/C=C\C/C=C\CCCCCCCC(=O)OCC` [(z,z,z)-9,12,15-octadecatrienoic acid ethyl ester], with 34.9%. Then `CCCCC/C=C\C/C=C\C/C=C\C/C=C\CCCC(=O)Nc1ccc(O)cc1` [AM404], with 47.6%; and `O=S(=O)(O)c1ccc(O)cc1` [Aluminum phenol sulfonate], with 27.4%; and `CCCCC/C=C\C/C=C\C/C=C\C/C=C\CCCC(=O)NCCO` [Anandamide (N-arachidonylethanol amide)], with 31.3%. In turn, `O=C1O/C(=C/Br)CCC1c1cccc2ccccc12` (stereo not drawn) [Bromoenol lactone] displayed an inhibition of 99.7%. The compound `CCCCCCCCCCCCC/C=C/[C@@H](O)[C@H](CO)NC(=O)CCCCC` [C-6 Ceramide] returned an inhibition of 48%. Then `CCCCCCCCCCCCC/C=C/[C@@H](O)[C@H](COP(=O)(O)O)NC(=O)CCCCCCC` [C-8 Ceramide-1-phosphate], with 42.7%. In the case of `CCCCCCCCCCCCC/C=C/[C@@H](O)[C@H](CO)NC(=O)CCCCCCC` [C-8 Ceramide] it was 65.5%; in that of `CCCCCCCCCCCCC/C=C/[C@@H](O)[C@H](CO)NCCCCCCCC` [C-8 Ceramine], 96.7%. Compound `CCCCCCCCCCCCCCCC[N+](C)(C)C` [Cetrimonium chloride] gave an inhibition of 99.5%.

For the compound `CCCCCCCCCCCCCCCC[N+](C)(C)C` [Cetyltrimethylammonium bromide], the inhibition came out at 99.5%. In the case of `COc1cc(/C=C/C(=O)CC(=O)/C=C/c2ccc(O)c(OC)c2)ccc1O` [Curcumin] it was 55.9%; in that of `CCCCCCCCCCCCC/C=C/[C@@H](O)[C@@H](N)CO` [D-erythro-Sphingosine C-18], 63.8%; in that of `CCCCCCCCCCCC[P+](c1ccccc1)(c1ccccc1)c1ccccc1` [DODECYLTRIPHENYLP[…], 98%, DODECYLTRIPHENYLP[…]], 91.1%.

For the compound `CCCCCCCCCC[N+](C)(C)CCCCCCCCCC` [Didecyldimethylammounium chloride], the inhibition was 97.5%.

For `CCCCCCCCCCCC(=O)NCCCN(C)C` [Dimethylaminopropyllaurylamide], the inhibition is 99.4%. In the case of `CCCCCCCCCCCCCCCC[N+](C)(C)Cc1ccccc1` [Dimethylbenzylcetylammonium chloride] it was 95.5%. Compound `CCCCCCCCCCCC[N+](C)(C)Cc1ccccc1` [Dimethyldodecylbenzylammonium bromide] gave an inhibition of 98.1%.

Turning to `CCCCCCCCCCCC[N+](C)(C)Cc1ccccc1` [Dimethyldodecylbenzylammonium chloride], the inhibition came out at 98.2%.

As to `CCCCCCCC[N+](C)(C)CCCCCCCC` [Dioctyldimethylammonium chloride], the inhibition was found to be 93.3%. For `CCCCCCCCCCCC(=O)NCCO` [Dodecanamide MEA], the inhibition is 44.3%. Then `CCCCCCCCCCCC[N+](C)(C)CCOc1ccccc1` [Domiphen bromide, reference compound], with 95.5%.

The compound `CC/C=C\C/C=C\C/C=C\C/C=C\C/C=C\CCCC(=O)O[C@H](COCCCCCCCCCCCCCCCC)COP(=O)([O-])OCC[N+](C)(C)C` [Eicosapentaenoyl PAF C-16] had an inhibition of 82.7%. In the case of `CCCCCCCCc1ccc(CCC(N)(CO)CO)cc1` [FTY720, reference compound] it was 79.1%; in that of `CCCCCCCCCCCCCCCC(=O)NCCO` [Hexadecanamide MEA], 32.5%; in that of `CCCCCCCCCCCCCCCCOC[C@H](CO)OC(C)=O` [Hexadecyl Acetyl Glycerol], 42%. In the case of `CCCCCCCCCCCCCCCCOCC(CO)OC` (stereo not drawn) [Hexadecyl Methyl Glycerol] it was 40%; in that of `CC(C)c1ccc2c(c1)c(SC(C)(C)C)c(CC(C)(C)C(=O)O)n2Cc1ccc(Cl)cc1` [MK 886 (sodium salt)], 47.2%; in that of `Cc1cc(C(C)(C)CC(C)(C)C)ccc1OCCOCC[N+](C)(C)Cc1ccccc1` [Methylbenzethonium chloride, reference compound], 93%. The compound `CCCCCCCCCCCCCCCCOC[C@H](COP(=O)([O-])OCC[N+](C)(C)C)OC(=O)NC` [Methylcarbamyl PAF C-16] had an inhibition of 59.7%.

Turning to `CCCCC/C=C\C/C=C\C/C=C\C/C=C\CCCC(=O)NCCc1ccc(O)c(O)c1` [N-Arachidonoyl Dopamine], the inhibition came to 49.1%. For the compound `CCCCCCCCCCCCCCCCCCCCCC(=O)NCCS(=O)(=O)O` [N-Docosanoyl Taurine], the inhibition worked out at 85.2%. In the case of `CCCCCCCCCCCCN(CCO)CCO` [N-Lauryldiethanolamine] it was 99.6% and 100%; in that of `CCCCCCCC/C=C\CCCCCCCCCCCCCC(=O)NCCS(=O)(=O)O` [N-Nervonoyl Taurine], 79.8%. In the case of `CCCCCCCCCCCCCCCC(=O)NCC(=O)O` [N-Palmitoyl Glycine] it was 85.8%. Then `CCCCCCCC/C=C\CCCCCCCC(=O)NCCO` [Oleoylethanolamide], with 34.1%; and `CCCCCCCC/C=C\CCCCCCCCN` [Oleyl amine], with 99.6%; and `CCCCCCCCCCCCCCCC(=O)OC[C@H](COP(=O)([O-])OCC[N+](C)(C)C)OC(=O)CCCCCCCC(=O)O` [PAz-PC], with 72.8%. `CCCCCCCCCCCCCCCC(=O)OC[C@H](COP(=O)([O-])OCC[N+](C)(C)C)OC(=O)CCCC=O` [POV-PC] displayed an inhibition of 48.7%. Take `CCCCCCCCCCCCCCCCCCN(CCO)CCO` [STEARYLDIETHANOLAMINE]: the inhibition stood at 88.1%. In the case of `CCCCCCCCCCCCCCCCOS(=O)(=O)O` [Sodium hexadecyl sulfate] it was 89.4%; in that of `CCCCCCCCCCCCCCCOS(=O)(=O)O` [Sodium pentadecyl sulfate], 86.6%.

`CCCCCCCCCCCCCCCCCC[N+](C)(C)Cc1ccccc1` [Stearalkonium chloride] displayed an inhibition of 96.5%. `CCCCCCCCCCCCCCCCCC[N+](C)(C)C` [Steartrimonium chloride]: the inhibition was 71.3%. For `CCCCCCCCCCCCCS(=O)(=O)O` [TRIDECYL SULFONIC ACID SODIUM SALT], the inhibition worked out at 95.6%. In the case of `CCCCCCCCCCCCCC[N+](C)(C)Cc1ccccc1` [Tetradecylbenzyldimethylammonium chloride] it was 93.8%; in that of `CC(C)=CCC/C(C)=C/CC/C(C)=C/CC[C@]1(C)CCc2c(C)c(O)c(C)c(C)c2O1` [alpha.-Tocotrienol], 29.9%.

`CCCCCCCC/C=C\CCCCCCCC(=O)OCCOCCO` [diglycol monooleate] displayed an inhibition of 67%. In turn, `CCCCC/C=C\C/C=C\C/C=C\C/C=C\CCCC(=O)OCC` [ethyl arachidonate] had an inhibition of 28.7%.

Turning to `CCCCCC/C=C\CCCCCCCC(=O)OCC` [ethyl cis-9-hexadecenoate], the inhibition worked out at 31.8%. In the case of `CCCCC/C=C\C/C=C\CCCCCCCC(N)=O` [linoleamide] it was 75.2%; in that of `CCCCCCCCCCCCCCCC(=O)NCCO` [palmitamide mea], 13.2%. Then `CCCCC/C=C\C/C=C\CCCCCCCC(=O)O` [potassium linoleate], with 98.9%. In the case of `CCCCCCCC/C=C\CCCCCCCC(=O)OCC(O)CO` (stereo not drawn) [α-glyceryl monooloeate] it was 49%.

`CC/C=C\C/C=C\C/C=C\CCCCCCCC(=O)O` [α-linoleic acid] yielded an inhibition of 97.9%.

For the compound `CC/C=C\C/C=C\C/C=C\CCCCCCCC(=O)OC` [α-linolenic acid methyl ester], the inhibition was found to be 24.9%.

Consider `CC(C)=CCC/C(C)=C/CC/C(C)=C/CC[C@]1(C)CCc2cc(O)c(C)c(C)c2O1` [γ-Tocotrienol], for which the inhibition stood at 38.5%. As for `CC(C)=CCC/C(C)=C/CC/C(C)=C/CC[C@]1(C)CCc2cc(O)cc(C)c2O1` [δ-Tocotrienol], the inhibition was 52.4%. In turn, “Benzalkonium chloride [reference compound]” yielded an inhibition of 97.5%.

The compound Laureth-6 showed an inhibition of 100%. On to Laureth-9, for which the inhibition amounted to 99.9%. Compound Octoxynol-9 had an inhibition of 9.83%.

As to Quaternium-17, the inhibition is 100%.
